Activity calls are given as the source filed them. No cut-off for these calls is given here.
Tests used:
Escherichia coli [1] = assay: Antimicrobial activity against Escherichia coli ZPM 132 assessed as reduction in cell viability incubated for 24 hrs by muller hinton broth microdilution based XTT assay; format: functional
Raji = assay: Antiproliferative activity against human Raji cells assessed as inhibition of cell growth incubated for 72 hrs by MTT assay; format: functional, cell-based
Vibrio cholerae = assay: Antibacterial activity against Vibrio cholerae O139 CIRS 245 assessed as reduction in cell viability incubated for 24 hrs by muller hinton broth microdilution based XTT assay; format: functional
[2] = target: Cholinesterase (Homo sapiens) (UniProt P06276); assay: Inhibition of human BChE at 100 uM using acetylthiocholine iodide as substrate by DTNB reagent based Ellman spectrophotometric analysis relative to control
Sequence of Cholinesterase (Homo sapiens) (P06276 whole entry): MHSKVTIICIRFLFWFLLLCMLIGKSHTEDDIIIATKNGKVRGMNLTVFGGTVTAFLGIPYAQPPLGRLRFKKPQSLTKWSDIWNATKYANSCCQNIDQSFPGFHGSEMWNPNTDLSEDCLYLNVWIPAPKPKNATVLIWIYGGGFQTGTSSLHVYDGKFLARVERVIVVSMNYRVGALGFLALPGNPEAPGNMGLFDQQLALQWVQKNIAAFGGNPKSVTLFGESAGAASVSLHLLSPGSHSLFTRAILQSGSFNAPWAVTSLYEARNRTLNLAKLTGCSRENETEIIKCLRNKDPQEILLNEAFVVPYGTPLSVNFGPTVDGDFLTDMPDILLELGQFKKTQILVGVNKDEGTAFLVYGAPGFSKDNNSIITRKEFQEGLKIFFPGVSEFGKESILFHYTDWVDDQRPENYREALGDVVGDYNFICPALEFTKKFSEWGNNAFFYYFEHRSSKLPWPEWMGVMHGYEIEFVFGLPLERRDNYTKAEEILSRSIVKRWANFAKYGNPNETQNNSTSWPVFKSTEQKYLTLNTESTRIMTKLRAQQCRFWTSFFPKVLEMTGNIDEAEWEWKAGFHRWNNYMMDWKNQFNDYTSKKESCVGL

[3] = Antiproliferative activity against human MRC5 cells assessed as inhibition of cell growth incubated for 72 hrs by MTT assay; format: toxicity, cell-based
MDA-MB-231 = assay: Antiproliferative activity against human MDA-MB-231 cells assessed as inhibition of cell growth incubated for 72 hrs by MTT assay; format: functional, cell-based; details: MDA-MB-231, 72 h
Streptococcus pneumoniae = assay: Antibacterial activity against Streptococcus pneumoniae ZPM 187 assessed as reduction in cell viability incubated for 24 hrs by muller hinton broth microdilution based XTT assay; format: functional
A549 = assay: Antiproliferative activity against human A549 cells assessed as inhibition of cell growth incubated for 72 hrs by MTT assay; format: functional, cell-based; details: A549, 72 h
Escherichia coli [4] = assay: Antibacterial activity against Escherichia coli ZPM 132 assessed as reduction in cell viability incubated for 24 hrs by muller hinton broth microdilution based XTT assay; format: functional
Jurkat = assay: Antiproliferative activity against human Jurkat cells assessed as inhibition of cell growth incubated for 72 hrs by MTT assay; format: functional, cell-based
K562 = assay: Antiproliferative activity against human K562 cells assessed as inhibition of cell growth incubated for 72 hrs by MTT assay; format: functional, cell-based; details: K562, 72 h
MCF7 = assay: Antiproliferative activity against human MCF7 cells assessed as inhibition of cell growth incubated for 72 hrs by MTT assay; format: functional, cell-based; details: MCF7, 72 h
Candida tropicalis = assay: Antifungal activity against Candida tropicalis CCY 29-7-62 assessed as reduction in fungal growth incubated for 48 hrs by muller hinton broth microdilution based XTT assay; format: functional
HeLa = assay: Antiproliferative activity against human HeLa cells assessed as inhibition of cell growth incubated for 72 hrs by MTT assay; format: functional, cell-based
HL-60 = assay: Antiproliferative activity against human HL-60 cells assessed as inhibition of cell growth incubated for 72 hrs by MTT assay; format: functional, cell-based; details: HL-60, 72 h

SMILES	MIC (Escherichia coli [1]) [µg/mL]	IC50 (Raji) [µM]	MBC (Vibrio cholerae) [µg/mL]	inhibition [2]	IC50 at 72 h [3] [µM]	IC50 (MDA-MB-231) [µM]	MBC (Streptococcus pneumoniae) [µg/mL]	IC50 (A549) [µM]	MBC (Escherichia coli [4]) [µg/mL]	IC50 (Jurkat) [µM]	IC50 (K562) [µM]	IC50 (MCF7) [µM]	MFC (Candida tropicalis) [µg/mL]	IC50 (HeLa) [µM]	IC50 (HL-60) [µM]
CO[C@@H]1CC(=O)O[C@@H]1[C@@H](OC(=O)c1ccccc1)[C@H](COC(=O)c1ccccc1)OC(=O)c1ccccc1	> 1000	14.1	> 100	40%	> 100	13.5	> 100	14.1	> 1000	15.9	3.36	13.2	> 100	15.3	8.58
CO[C@H]1CC(=O)O[C@H]1[C@H](OC(C)=O)[C@H](COC(=O)c1ccccc1)OC(C)=O		11.2			> 100	16.1		8.32		14	8.23	5.21		7.02	21
C=C[C@H](OCc1ccccc1)[C@H]1OC(=O)C[C@H]1O		34.8			> 100	12.9		17.2		29.1	25.1	19.2		17	23.4
C=C[C@@H](O)[C@@H]1OC(=O)C[C@@H]1OC		18.6			> 100	11.9		19.6		5.36	2.74	9.2		4.52	7.17
O=C1C[C@@H](O)[C@@H]([C@@H](O)[C@@H](O)CO)O1		24.4			> 100	19.6		23.6		20.3	16.5	19.5		12.9	19.3
CO[C@H]1CC(=O)O[C@H]1[C@H](O)[C@H](O)COC(=O)c1ccccc1	> 1000	19.7	> 100	inactive	> 100	45.2	> 100	18.7	> 1000	16.5	3.97	14.1	> 100	16	9.45
C=C[C@@H](OCc1ccccc1)[C@@H]1OC(=O)C[C@@H]1O	> 1000	22.2	> 100	13%	> 100	21.3	> 100	22.6	> 1000	11.3	3.95	9.44	> 100	54.1	11.2
O=C1C[C@H]2O[C@H](CI)[C@H](O)[C@H]2O1	> 1000		> 100	inactive			> 100		> 1000				> 100		
CO[C@@H]1CC(=O)O[C@@H]1[C@@H](O)[C@H](O)COC(=O)c1ccccc1		19.4			> 100	31.2		25.6		15.6	10.6	15.6		8.61	18.9
CO[C@H]1CC(=O)O[C@H]1[C@H](OC(C)=O)[C@@H](COC(=O)c1ccccc1)OC(C)=O	> 1000	27.7	> 100	85%	87.9	13.2	> 100	21.4	> 1000	24.2	16.2	29.4	> 100	23.8	19.4
C=C[C@H](OCc1ccccc1)[C@H]1OC(=O)C[C@H]1OC		34.4			> 100	12.6		27.9		11.6	7.59	5.67		11.5	12.7
O=C1C[C@@H]2O[C@@H](CI)[C@@H](O)[C@@H]2O1	> 1000	26.2	> 100	inactive	> 100	17.7	> 100	24.6	> 1000	22.8	15.1	19.4	> 100	20.1	16.7
C=C[C@@H](OCc1ccccc1)[C@@H]1OC(=O)C[C@@H]1OC		12.9			> 100	42.3		18.7		9.85	4.42	16.9		26.4	12.1
CO[C@H]1CC(=O)O[C@H]1[C@H](OC(=O)c1ccccc1)[C@@H](COC(=O)c1ccccc1)OC(=O)c1ccccc1		17			> 100	23.7		24.1		23.4	17.9	1.31		5.58	6.38
CO[C@@H]1CC(=O)O[C@@H]1[C@H]1OC(=O)O[C@H]1COC(=O)c1ccccc1		21.3		51%	> 100	25.8		13.4		16	10	4.31		7.03	10.6
CO[C@@H]1CC(=O)O[C@@H]1[C@@H](O)[C@@H](O)COC(=O)c1ccccc1		15.4			> 100	27.7		11.4		20.2	11.4	14.4		7.65	12.1
CO[C@H]1CC(=O)O[C@H]1[C@H](O)[C@@H](O)COC(=O)c1ccccc1		21			> 100	19.9		29.6		32	9.89	12.8		10.6	10.3
Nc1c2c(nc3ccccc13)CCCC2				96%											
